Assay results reported in US20140273094A1, “METHODS OF ENHANCING PROTEIN QUALITY AND QUANTITY BY YEAST FED-BATCH FERMENTATION” (BRISTOL-MYERS SQUIBB COMPANY, priority 2013, published 2014).

Tested on: P. pastoris
Experiment: Effect of hydroxyurea on cell growth and antibody productivity in fed-batch fermentation, Run 01MAY11
Format: cell-based, Pichia pastoris
Protocol: The glucose and ethanol were measured by YSI 2700 (YSI Incorporated, Yellow Springs, Ohio), O2 and CO2 of the exhaust line were measured by Questor GP Process Mass Spectrometer (ABB Extrel, Pittsburgh, Pa.) and the RQ value was calculated using below Equation [1]. The wet cell weight (WCW) was measured by centrifuging 1 milliliter (mL) fermentation broth at 13,200 rpm for 10 minutes, weighing pellet, and calculated ratio of pellets weight (g) over volume (mL). The supernatant titer (g/L) was measured by the HPLC method and the whole broth (WB) titer was then calculated by below Equation [2].
WB_Titer=Supernatant_Titer*(1−WCW/1000)
The treatment cultures were operated the same way plus adding hydroxyurea 5 hours after feed start.

With NC(=O)NO [Hydroxyurea] the “average whole broth titer” value (90 hours run time, three hydroxyurea treatment lots) was 75 normalized units and the “WCW reached and maintained by hydroxyurea treatment lots” value (after peak cell density at 30-40 hours, control lots ~400 g/Kg) was ~450 g/kg.
